According to US20240209389A1, “PLANT HAVING ENHANCED RESISTANCE AGAINST COLORADO POTATO BEETLE AND METHOD FOR PRODUCING SAME, AND METHOD FOR EVALUATING RESISTANCE AGAINST COLORADO POTATO BEETLE IN PLANT” (KANEKA CORPORATION, priority 2020, published 2024):

Key:
[1] = system: S123DOX; test: Detection of in vitro enzyme activity of 23DOX (LC-MS of reaction product); assay type: biochemical, S. lycopersicum; conditions: 50 μM substrate, crude extraction fraction of E. coli expressing S123DOX, 2-oxoglutaric acid, sodium ascorbate, FeSO4, pH 7.2
Protocol: (§1) First, in order to synthesize 23DOX in E. coli, the S123DOX gene and the Sc23DOX gene were each linked to a pCold ProS2 vector (manufactured by Takara Bio Inc.), and were introduced into E. coli BL21 (DE3). The obtained recombinant E. coli was cultured at 37° C. until the OD600 value reached 0.5, was cooled to 15° C., and was left to stand for 30 minutes. IPTG was added thereto so that the final concentration reached 0.1 mM, and the mixture was cultured under shaking at 15° C. for 24 hours, to induce expression of the recombinant protein.
(§2) Then, the E. coli bodies whose expression was induced were collected, and were suspended in a sonication buffer [50 mM Bis-Tris-HCl (pH 7.0), 150 mM NaCl, 1 mM dithiothreitol, 10% glycerol]. After an ultrasonic crushing machine was used to crush bacterial cells, the mixture was subjected to centrifugal separation, and crude extraction fractions were obtained from the supernatant. A 100 mM Bis-Tris-HCl solution (pH 7.2, containing 5 mM 2-oxoglutaric acid, 10 mM sodium ascorbate, and 200 μM FeSO4) containing a 50 μM substrate was added to the mixture, and was allowed to react.
(§3) The obtained reaction product was analyzed through LC-MS (manufactured by Waters, product name: UPLC-ESI-MS ACQUITY). As the column, ACQUITY HSS T3 1.8 μm φ 2.1×100 mm (manufactured by Waters) was used. […]

[2] = system: Sc23DOX; test: as above; assay type: biochemical, S. chacoense; conditions: 50 μM substrate, crude extraction fraction of E. coli expressing Sc23DOX, 2-oxoglutaric acid, sodium ascorbate, FeSO4, pH 7.2
Protocol: as §1, §2, §3

[3] = system: St23DOX; test: Detection of in vitro enzyme activity of St23DOX (LC-MS of reaction product); assay type: biochemical, S. tuberosum; conditions: same method as Example 3, crude extraction fraction of E. coli expressing St23DOX
Protocol: as §1, §2
The obtained reaction product was analyzed through LC-MS (manufactured by Waters, product name: UPLC-ESI-MS ACQUITY). […]
The St23DOX gene identified in Example 10 was analyzed in the same method described in Example 3. […]

[4] = system: S123ACT; test: Detection of in vitro enzyme activity of 23ACT (LC-MS of reaction product); assay type: biochemical, S. lycopersicum; conditions: 50 μM substrate, crude extraction fraction of E. coli expressing S123ACT, 400 μM acetyl CoA, pH 7.2
Protocol: (§4) First, in order to synthesize 23ACT in vitro, the S123ACT gene and the Sc23ACT gene were each linked to a pCold ProS2 (manufactured by Takara Bio Inc.), and were introduced into E. coli BL21 (DE3). The obtained recombinant E. coli was cultured at 37° C. until the OD600 value reached 0.5, was cooled to 15° C., and was left to stand for 30 minutes. IPTG was added thereto so that the final concentration reached 0.1 mM, and the mixture was cultured under shaking at 15° C. for 24 hours, to induce expression of the recombinant protein. Then, the E. coli bodies whose expression was induced were collected, and were suspended in a sonication buffer [50 mM Bis-Tris-HCl (pH 7.0), 150 mM NaCl, 1 mM dithiothreitol, 10% glycerol]. After an ultrasonic crushing machine was used to crush bacterial cells, the mixture was subjected to centrifugal separation, and crude extraction fractions were obtained from the supernatant. A 100 mM Bis-Tris-HCl solution (pH 7.2, containing 400 μM acetyl COA) containing a 50 μM substrate was added to the mixture, and was allowed to react.
(§5) The obtained reaction product was analyzed through LC-MS (manufactured by Waters, product name: UPLC-ESI-MS ACQUITY). As the column, ACQUITY HSS T3 (1.8 μm φ2.1×100 mm) (manufactured by Waters) was used. In LC analysis, gradient elution was performed using a mobile phase (A: 0.1% formic acid water and B: acetonitrile). The gradient elution was performed under the condition: 0 to 30 minutes, 90% A/10% B to 45% A/55% B; 30 to 31 minutes, 45% A/55% B to 100% B; and maintaining for from 31 to 35 minutes, 100% B.

[5] = system: Sc23ACT; test: as above; assay type: biochemical, S. chacoense; conditions: 50 μM substrate, crude extraction fraction of E. coli expressing Sc23ACT, 400 μM acetyl CoA, pH 7.2
Protocol: as §4, §5

[6] = system: St23ACT; test: Detection of in vitro enzyme activity of St23ACT (LC-MS of reaction product); assay type: biochemical, S. tuberosum; conditions: same method as Example 4, crude extraction fraction of E. coli expressing St23ACT
Protocol: as §4
The obtained reaction product was analyzed through LC-MS (manufactured by Waters, product name: UPLC-ESI-MS ACQUITY). As the column, ACQUITY HSS T3 (1.8 μm φ2.1×100 mm) (manufactured by Waters) was used. […]
The St23ACT gene identified in Example 12 was analyzed in the same method described in Example 4. […]

Molecule: C[C@H]1CC[C@]2(NC1)O[C@H]1C[C@H]3[C@@H]4CC[C@H]5C[C@@H](O[C@@H]6O[C@H](CO)[C@H](O[C@@H]7O[C@H](CO)[C@@H](O)[C@H](O[C@@H]8OC[C@@H](O)[C@H](O)[C@H]8O)[C@H]7O[C@@H]7O[C@H](CO)[C@@H](O)[C@H](O)[C@H]7O)[C@H](O)[C@H]6O)CC[C@]5(C)[C@H]4CC[C@]3(C)[C@H]1[C@@H]2C [α-tomatine]
- introduction of a hydroxy group to position 23 of the substrate (reaction product) [1]: a product to which a hydroxy group was introduced at position 23 was obtained
- introduction of a hydroxy group to position 23 of the substrate (reaction product) [2]: a product to which a hydroxy group was introduced at position 23 was obtained
- introduction of a hydroxy group to position 23 of the substrate (reaction product) [3]: a product to which a hydroxy group was introduced at position 23 can be obtained

Molecule: C[C@H]1C[C@H](O)[C@@H]2[C@@H](C)[C@H]3[C@H](C[C@H]4[C@@H]5CC=C6C[C@@H](O[C@@H]7O[C@H](CO)[C@H](O)[C@H](O[C@@H]8O[C@H](CO)[C@@H](O)[C@H](O)[C@H]8O)[C@H]7O[C@@H]7O[C@@H](C)[C@H](O)[C@@H](O)[C@H]7O)CC[C@]6(C)[C@H]5CC[C@]34C)N2C1 [leptinine II, 3β-[(3-O-β-D-glucopyranosyl-2-O-α-L-rhamnopyranosyl-β-D-galactopyranosyl)oxy]solanid-5-en-23β-ol]
- acetylation of the hydroxy group of position 23 of the substrate (reaction product) [4]: a new reaction product was not obtained
- acetylation of the hydroxy group of position 23 of the substrate (reaction product) [5]: a new reaction product was not obtained

Molecule: CC1CC(O)C2C(C)C3C(CC4C5CC=C6CC(OC7OC(CO)C(OC8OC(C)C(O)C(O)C8O)C(O)C7OC7OC(C)C(O)C(O)C7O)CCC6(C)C5CCC43C)N2C1 [leptinine I, 3β-[2-O,4-O-bis(α-L-rhamnopyranosyl)-β-D-glucopyranosyloxy]solanid-5-en-23β-ol]
- acetylation of the hydroxy group of position 23 of the substrate (reaction product) [4]: a new reaction product was not obtained
- acetylation of the hydroxy group of position 23 of the substrate (reaction product) [5]: a new reaction product was not obtained

Molecule: C[C@H]1CC[C@@H]2[C@@H](C)[C@H]3[C@H](C[C@H]4[C@@H]5CC=C6C[C@@H](O[C@@H]7O[C@H](CO)[C@H](O)[C@H](O[C@@H]8O[C@H](CO)[C@@H](O)[C@H](O)[C@H]8O)[C@H]7O[C@@H]7O[C@@H](C)[C@H](O)[C@@H](O)[C@H]7O)CC[C@]6(C)[C@H]5CC[C@]34C)N2C1 [α-solanine]
- introduction of a hydroxy group to position 23 of the substrate (reaction product) [1]: a new reaction product was not obtained
- introduction of a hydroxy group to position 23 of the substrate (reaction product) [2]: a new reaction product was not obtained

Molecule: 23 hydroxy tomatine
- acetylation of the hydroxy group of position 23 of the substrate (reaction product) [4]: a product to which an acetoxy group was introduced at position 23 was obtained
- acetylation of the hydroxy group of position 23 of the substrate (reaction product) [5]: a product to which an acetoxy group was introduced at position 23 was obtained
- acetylation of the hydroxy group of position 23 of the substrate (reaction product) [6]: a product to which an acetoxy group was introduced at position 23 was obtained
